Test results: ChEMBL document CHEMBL3779879, “Structural hybridization of three aminoglycoside antibiotics yields a potent broad-spectrum bactericide that eludes bacterial resistance enzymes” (2016)
Converted amounts (≈) assume the structure as drawn.

Assays:
Assay type in all cases: functional
Escherichia coli [1] = test: Antibacterial activity against Escherichia coli expressing AAC(3)-IV
Escherichia coli [2] = test: Antibacterial activity against Escherichia coli expressing A-site methyltransferase ArmA
Escherichia coli [3] = test: Antibacterial activity against Escherichia coli ATCC 25922
Staphylococcus aureus [4] = test: Antibacterial activity against Staphylococcus aureus ATCC 29213
Klebsiella pneumoniae = test: Antibacterial activity against Klebsiella pneumoniae ATCC 10031
Acinetobacter baumannii [5] = test: Antibacterial activity against Acinetobacter baumannii
Pseudomonas aeruginosa [6] = test: Antibacterial activity against Pseudomonas aeruginosa ATCC 27853 expressing APH(3')-IIa
Enterobacter cloacae = test: Antibacterial activity against Enterobacter cloacae expressing APH(3')-I, ANT(2'')-I, AAC(6')
Escherichia coli [7] = test: Antibacterial activity against Escherichia coli expressing APH(3')-Ib
Staphylococcus aureus [8] = test: Antibacterial activity against Staphylococcus aureus expressing APH(3'/5'')-III
Acinetobacter baumannii [9] = test: Antibacterial activity against Acinetobacter baumannii expressing AAC(3)-I, APH(3')-VI, ANT(2'')-I
Staphylococcus aureus [10] = test: Antibacterial activity against Staphylococcus aureus expressing ANT(4')-I
Pseudomonas aeruginosa [11] = test: Antibacterial activity against Pseudomonas aeruginosa expressing ANT(4')-II
Escherichia coli [12] = test: Antibacterial activity against Escherichia coli expressing ANT(2'')-I
Pseudomonas aeruginosa [13] = test: Antibacterial activity against Pseudomonas aeruginosa expressing AAC(6')-II
Staphylococcus aureus [14] = test: Antibacterial activity against Staphylococcus aureus expressing AAC(6')/APH(2'')

MIC (Escherichia coli [1]) [µg/mL]	MIC (Escherichia coli [2]) [µg/mL]	MIC (Escherichia coli [3]) [µg/mL]	MIC (Staphylococcus aureus [4]) [µg/mL]	MIC (Klebsiella pneumoniae) [µg/mL]	MIC (Acinetobacter baumannii [5]) [µg/mL]	MIC (Pseudomonas aeruginosa [6]) [µg/mL]	MIC (Enterobacter cloacae) [µg/mL]	MIC (Escherichia coli [7]) [µg/mL]	MIC (Staphylococcus aureus [8]) [µg/mL]	MIC (Acinetobacter baumannii [9]) [µg/mL]	MIC (Staphylococcus aureus [10]) [µg/mL]	MIC (Pseudomonas aeruginosa [11]) [µg/mL]	MIC (Escherichia coli [12]) [µg/mL]	MIC (Pseudomonas aeruginosa [13]) [µg/mL]	MIC (Staphylococcus aureus [14]) [µg/mL]	SMILES
> 64	64 (≈ 152 µM)	64 (≈ 152 µM)	16 (≈ 38.1 µM)	16 (≈ 38.1 µM)	> 64	16 (≈ 38.1 µM)	> 64	64 (≈ 152 µM)	> 64	> 64	16 (≈ 38.1 µM)	64 (≈ 152 µM)	> 64	> 64	> 64	NCC1=CC[C@@H](N)[C@@H](O[C@H]2[C@H](O[C@@H]3O[C@H](CO)[C@@H](O)[C@H]3O)[C@@H](O)[C@H](N)C[C@@H]2N)O1
8 (≈ 15.3 µM)	8 (≈ 15.3 µM)	8 (≈ 15.3 µM)	8 (≈ 15.3 µM)	4 (≈ 7.67 µM)	4 (≈ 7.67 µM)	4 (≈ 7.67 µM)	> 64	4 (≈ 7.67 µM)	16 (≈ 30.7 µM)	8 (≈ 15.3 µM)	8 (≈ 15.3 µM)	8 (≈ 15.3 µM)	8 (≈ 15.3 µM)	16 (≈ 30.7 µM)	16 (≈ 30.7 µM)	NCC[C@H](O)C(=O)N[C@@H]1C[C@H](N)[C@@H](O[C@H]2OC(CN)=CC[C@H]2N)[C@H](O[C@@H]2O[C@H](CO)[C@@H](O)[C@H]2O)[C@H]1O
> 64	> 64	> 64	> 64	> 64	> 64	> 64	> 64	> 64	> 64	> 64	> 64	> 64	> 64	> 64	> 64	N[C@@H]1CC=C(CO)O[C@@H]1O[C@H]1[C@H](O[C@@H]2O[C@H](CO)[C@@H](O)[C@H]2O)[C@@H](O)[C@H](N)C[C@@H]1N
8 (≈ 13.5 µM)	16 (≈ 26.9 µM)	8 (≈ 13.5 µM)	1 (≈ 1.68 µM)	2 (≈ 3.36 µM)	4 (≈ 6.73 µM)	2 (≈ 3.36 µM)	> 64	> 64	16 (≈ 26.9 µM)	> 64	2 (≈ 3.36 µM)	4 (≈ 6.73 µM)	16 (≈ 26.9 µM)	> 64	> 64	CNCC1=CC[C@H](N)[C@H](O[C@H]2[C@H](O[C@@H]3O[C@H](CO)[C@@H](O[C@@H]4O[C@H](CN)[C@H](O)[C@@H](O)[C@@H]4N)[C@H]3O)[C@@H](O)[C@H](N)C[C@@H]2N)O1
> 64	8 (≈ 17.6 µM)	8 (≈ 17.6 µM)	16 (≈ 35.2 µM)	2 (≈ 4.4 µM)	8 (≈ 17.6 µM)	> 64	> 64	> 64	> 64	> 64	> 64	> 64	8 (≈ 17.6 µM)	> 64	> 64	NC[C@H]1O[C@H](O[C@H]2[C@H](O[C@@H]3O[C@H](CO)[C@@H](O)[C@H]3O)[C@@H](O)[C@H](N)C[C@@H]2N)[C@H](N)[C@@H](O)[C@@H]1O [RIBOSTAMYCIN]

The remaining lines, values behind:

SMILES	MIC (Escherichia coli [1]) [µg/mL]	MIC (Escherichia coli [2]) [µg/mL]	MIC (Escherichia coli [3]) [µg/mL]	MIC (Staphylococcus aureus [4]) [µg/mL]	MIC (Klebsiella pneumoniae) [µg/mL]	MIC (Acinetobacter baumannii [5]) [µg/mL]	MIC (Pseudomonas aeruginosa [6]) [µg/mL]	MIC (Enterobacter cloacae) [µg/mL]	MIC (Escherichia coli [7]) [µg/mL]	MIC (Staphylococcus aureus [8]) [µg/mL]	MIC (Acinetobacter baumannii [9]) [µg/mL]	MIC (Staphylococcus aureus [10]) [µg/mL]	MIC (Pseudomonas aeruginosa [11]) [µg/mL]	MIC (Escherichia coli [12]) [µg/mL]	MIC (Pseudomonas aeruginosa [13]) [µg/mL]	MIC (Staphylococcus aureus [14]) [µg/mL]
NCC[C@H](O)C(=O)N[C@@H]1C[C@H](N)[C@@H](O[C@H]2O[C@H](CO)[C@@H](O)[C@H](O)[C@H]2N)[C@H](O[C@@H]2O[C@H](CO)[C@@H](O[C@H]3O[C@@H](CN)[C@@H](O)[C@H](O)[C@H]3N)[C@H]2O)[C@H]1O	4 (≈ 5.58 µM)	4 (≈ 5.58 µM)	2 (≈ 2.79 µM)	2 (≈ 2.79 µM)	1 (≈ 1.4 µM)	2 (≈ 2.79 µM)	8 (≈ 11.2 µM)	8 (≈ 11.2 µM)	2 (≈ 2.79 µM)	32 (≈ 44.6 µM)	64 (≈ 89.3 µM)	> 64	4 (≈ 5.58 µM)	8 (≈ 11.2 µM)	8 (≈ 11.2 µM)	32 (≈ 44.6 µM)
NCC[C@H](O)C(=O)N[C@@H]1C[C@H](N)[C@@H](O[C@H]2O[C@H](CN)[C@@H](O)[C@H](O)[C@H]2N)[C@H](O[C@@H]2O[C@H](CO)[C@@H](O)[C@H]2O)[C@H]1O	2 (≈ 3.6 µM)	2 (≈ 3.6 µM)	2 (≈ 3.6 µM)	8 (≈ 14.4 µM)	1 (≈ 1.8 µM)	1 (≈ 1.8 µM)	> 32	32 (≈ 57.6 µM)	1 (≈ 1.8 µM)	> 32	> 32	> 32	> 32	4 (≈ 7.2 µM)	> 32	> 32
NCC1O[C@H](O[C@H]2[C@@H](O)[C@H](O[C@H]3[C@H](O)[C@@H](N)C[C@@H](N)[C@@H]3O[C@H]3O[C@H](CN)[C@@H](O)[C@H](O)[C@H]3N)O[C@@H]2CO)[C@H](N)[C@@H](O)[C@@H]1O (stereo not given in full)	2 (≈ 3.25 µM)	1 (≈ 1.63 µM)	2 (≈ 3.25 µM)	0.5 (≈ 0.813 µM)	0.5 (≈ 0.813 µM)	1 (≈ 1.63 µM)	32 (≈ 52.1 µM)	> 64	64 (≈ 104 µM)	> 64	> 64	> 64	8 (≈ 13 µM)	2 (≈ 3.25 µM)	8 (≈ 13 µM)	> 64
NCC[C@H](O)C(=O)N[C@@H]1C[C@H](N)[C@@H](O[C@H]2OC(CN)=CC[C@H]2N)[C@H](O[C@@H]2O[C@H](CO)[C@@H](O[C@@H]3O[C@H](CN)[C@H](O)[C@@H](O)[C@@H]3N)[C@H]2O)[C@H]1O	1 (≈ 1.47 µM)	1 (≈ 1.47 µM)	0.5 (≈ 0.733 µM)	0.5 (≈ 0.733 µM)	0.5 (≈ 0.733 µM)	0.5 (≈ 0.733 µM)	0.25 (≈ 0.367 µM)	8 (≈ 11.7 µM)	0.25 (≈ 0.367 µM)	1 (≈ 1.47 µM)	1 (≈ 1.47 µM)	1 (≈ 1.47 µM)	0.5 (≈ 0.733 µM)	4 (≈ 5.87 µM)	0.5 (≈ 0.733 µM)	2 (≈ 2.93 µM)
CN[C@@H](C)[C@@H]1CC[C@@H](N)[C@@H](O[C@H]2[C@H](O)[C@@H](O[C@H]3OC[C@](C)(O)[C@H](NC)[C@H]3O)[C@H](N)C[C@@H]2N)O1	16 (≈ 33.5 µM)	> 64	0.5 (≈ 1.05 µM)	0.5 (≈ 1.05 µM)	0.25 (≈ 0.523 µM)	2 (≈ 4.19 µM)	0.5 (≈ 1.05 µM)	32 (≈ 67 µM)	0.25 (≈ 0.523 µM)	0.5 (≈ 1.05 µM)	> 64	0.5 (≈ 1.05 µM)	2 (≈ 4.19 µM)	64 (≈ 134 µM)	32 (≈ 67 µM)	> 64
NC[C@H]1O[C@@H](O[C@H]2[C@@H](O)[C@H](O[C@@H]3[C@@H](O)[C@H](N)C[C@H](N)[C@H]3O[C@@H]3OC(CO)=CC[C@@H]3N)O[C@@H]2CO)[C@@H](N)[C@H](O)[C@H]1O (stereo in doubt)	> 64	> 64	> 64	8 (≈ 13.8 µM)	> 64	> 64	> 64	> 64	> 64	> 64	> 64	16 (≈ 27.5 µM)	> 64	> 64	> 64	> 64
NCC1=CC[C@H](N)[C@H](O[C@H]2[C@H](O[C@@H]3O[C@H](CO)[C@@H](O[C@@H]4O[C@H](CN)[C@H](O)[C@@H](O)[C@@H]4N)[C@H]3O)[C@@H](O)[C@H](N)C[C@@H]2N)O1 (stereo in doubt)	8 (≈ 13.8 µM)	2 (≈ 3.44 µM)	2 (≈ 3.44 µM)	1 (≈ 1.72 µM)	0.5 (≈ 0.861 µM)	1 (≈ 1.72 µM)	0.5 (≈ 0.861 µM)	> 64	> 64	16 (≈ 27.6 µM)	> 64	1 (≈ 1.72 µM)	1 (≈ 1.72 µM)	2 (≈ 3.44 µM)	> 64	64 (≈ 110 µM)
NCC[C@H](O)C(=O)N[C@@H]1C[C@H](N)[C@@H](O[C@H]2O[C@H](CN)[C@@H](O)[C@H](O)[C@H]2O)[C@H](O)[C@H]1O[C@H]1O[C@H](CO)[C@@H](O)[C@H](N)[C@H]1O [AMIKACIN]	2 (≈ 3.42 µM)	> 64	2 (≈ 3.42 µM)	2 (≈ 3.42 µM)	0.5 (≈ 0.854 µM)	2 (≈ 3.42 µM)	2 (≈ 3.42 µM)	64 (≈ 109 µM)	0.5 (≈ 0.854 µM)	8 (≈ 13.7 µM)	> 64	64 (≈ 109 µM)	32 (≈ 54.6 µM)	4 (≈ 6.83 µM)	4 (≈ 6.83 µM)	64 (≈ 109 µM)
NC[C@@H]1O[C@H](O[C@H]2[C@@H](O)[C@H](O[C@@H]3[C@@H](O)[C@H](N)C[C@H](N)[C@H]3O[C@H]3O[C@H](CO)[C@@H](O)[C@H](O)[C@H]3N)O[C@@H]2CO)[C@H](N)[C@@H](O)[C@@H]1O [PAROMOMYCIN]	8 (≈ 13 µM)	4 (≈ 6.5 µM)	4 (≈ 6.5 µM)	2 (≈ 3.25 µM)	2 (≈ 3.25 µM)	4 (≈ 6.5 µM)	> 64	> 64	> 64	> 64	> 64	> 64	> 64	4 (≈ 6.5 µM)	> 64	> 64
CN[C@@H]1[C@@H](O)[C@@H](O[C@@H]2[C@@H](O)[C@H](O[C@H]3OC(CN)=CC[C@H]3N)[C@@H](N)C[C@H]2N)OC[C@]1(C)O [SISOMICIN]	32 (≈ 71.5 µM)	> 64	0.5 (≈ 1.12 µM)	0.5 (≈ 1.12 µM)	0.25 (≈ 0.559 µM)	0.5 (≈ 1.12 µM)	0.5 (≈ 1.12 µM)	> 64	0.25 (≈ 0.559 µM)	0.25 (≈ 0.559 µM)	> 64	1 (≈ 2.23 µM)	1 (≈ 2.23 µM)	64 (≈ 143 µM)	32 (≈ 71.5 µM)	> 64
